The results in this text go back to patent US8481553B2, “Antimetastatic compounds” (Brigham Young University, priority 2010, dated 2013).

Bounds are passed on as bounds.

One experiment deals with MDCK cells. Briefly: HGF-induced epithelial-mesenchymal transition / migration of MDCK cells on transwell filters (crystal violet densitometry). In kind it is cell-based. The note with it: Canis lupus familiaris, MDCK; test compound 10 μM, then HGF, 24 hours; percentage value like the untreated controls (unstimulated cells = maximal effect, HGF treated cells without compound = nil effect). Here is the method: MDCK cells were seeded at confluency into the wells of a transwell filter in DMEM with 10% fetal bovine serum. Cells were cultured for 24 hours. Test compounds, dissolved in DMSO, were added to each test well to a 10 μM final concentration, and then hepatocyte growth factor (HGF) was then added. The MDCK cells were cultured for 24 hours. Concurrently, controls treated with and without HGF and with no test compounds were also prepared.
After post-HGF addition culturing, transwell filters were prepared by repeated washing using ice cold PBS. The cells were then fixed with paraformaldehyde (3.7%) on ice for 15 minutes to the filters. After fixation, the transwell filters were washed repeatedly with PBS followed by staining with crystal violet for 15 minutes. The transwell filters were washed again with distilled water.
The upper surface of the transwell filters were swabbed using a cotton-tipped probe. The filters were photographed using a gel documentation system. Densitometry measurements were made on the test samples and compared with control samples.
As usually defined, the inhibition is the percentage by which the read-out fell short of the control. A lower inhibition goes with a weak effect. As for `Oc1cccc2ccc(/C=C/c3ccc(Cl)c(Cl)c3)nc12` [Compound B-8], the inhibition at 10 µM was more than 5%.

In turn, `COc1cccc2ccc(/C=C/c3cccc([N+](=O)[O-])c3)nc12` [Compound B-20] had an inhibition at 10 µM of 92.4%.

Compound `COc1cccc2ccc(/C=C/c3cc(I)ccc3OC(C)=O)nc12` [Compound B-21] gave an inhibition at 10 µM of 72.5%.

`COc1cc(/C=C/c2ccc3cccc(OC(C)=O)c3n2)ccc1O` [Compound B-29] gave an inhibition at 10 µM of 94.2%.

In turn, `CCC(=O)Oc1c(OC)cc(/C=C/c2ccc3cccc(OC(=O)CC)c3n2)cc1OC` [Compound B-24] gave an inhibition at 10 µM of 98.1%.

`C=CCc1ccccc1OCC(=O)N/N=C/c1ccc(Cl)cc1` [Compound 2] registered an inhibition at 10 µM of 67.3%.

Compound `CCc1ccccc1OCC(=O)N/N=C/c1ccc(Br)cc1` [Compound 14] registered an inhibition at 10 µM of 100%.

As to `COc1cc(Cl)cc(/C=C/c2ccc3cccc(O)c3n2)c1OC` [Compound B-28], the inhibition at 10 µM was determined as 100%.

Turning to `CCOc1cccc(/C=C/c2ccc3cccc(OC)c3n2)c1` [Compound B-10], the inhibition at 10 µM is 76.1%.

In turn, `COc1cc(/C=C/c2ccc3cccc(O)c3n2)ccc1OCc1ccccc1` [Compound B-32] gave an inhibition at 10 µM of 91.8%.

Still in this experiment, the particulars now being: test compound 10 μM, then HGF, 24 hours; percentage value like the untreated controls (unstimulated cells = maximal effect, HGF treated cells without compound = nil effect).
For the compound `O=C(COc1ccccc1Br)N/N=C/c1cccc(Br)c1` [Compound 28], the “Assay Value” is less than 5%.

`Cc1noc(C)c1CSc1nc2sc3c(c2c(=O)n1-c1ccccc1)CCC3` [Compound A-6]: the “Assay Value” came to 55.1%.

Consider `Oc1cccc2ccc(/C=C/c3ccc(OC4CCCC4)cc3)nc12` [Compound B-16], for which the “Assay Value” worked out at 100%.

Consider `O=C(COc1ccccc1Br)N/N=C/c1ccccc1Br` [Compound 37], for which the “Assay Value” is on record as less than 5%.

`CC1CCc2c(sc3nc(SCC(=O)N4CCOCC4)n(Cc4ccccc4)c(=O)c23)C1` (centres unmarked) [Compound A-20]: the “Assay Value” is reported as less than 5%.

With `Cc1cccc(OCC(=O)N/N=C/c2cccc(I)c2)c1` [Compound 16], the “Assay Value” is listed as less than 5%.

`O=C(COc1ccc2ccccc2c1)N/N=C/c1ccccc1Br` [Compound 30]: the “Assay Value” is listed as less than 5%.
